Measured values taken from publication PMC5656653, “Evaluation of Ga-DOTA-(D-Asp)n as bone imaging agents: D-aspartic acid peptides as carriers to bone” (Scientific Reports, 2017).
Each block holds one molecule with its values, some of them ahead of it. Where a SMILES comes first, the peptide text is derived from it. The star is where a group is joined. DOTA = O=C(O)CN1CCN(CC(=O)O)CCN(CC(=O)*)CCN(CC(=O)O)CC1

Tests used:
[1] = Urine analyses by RP-HPLC after i.v. injection; assay type: in vivo; conditions: mice, urine from bladder at 1 h post-injection
Description: ^67Ga-DOTA-(L-Asp)14 was prepared according to a method described previously. ^67Ga-DOTA-(L-Asp)14 or ^67Ga-DOTA-(D-Asp)14 solution (370 kBq / 200 μL) was intravenously injected to 6-week-old male ddY mice. At 1 h post-injection, mice were sacrificed and their […] were taken from the bladders. After ultrafiltration (Microcon-30, Merck KGaA), the filtrate samples were analyzed by RP-HPLC at a flow rate of 1 mL/min with a gradient mobile phase from water containing 0.1% TFA to 20% methanol in water containing 0.1% TFA for 20 min.

[2] = set-up: method as in PMID 24391942; conditions: normal mice; cited from earlier work
[3] = Biodistribution experiments in normal mice after i.v. injection; assay type: in vivo; conditions: for tissue uptake dose at 10 min / tissue uptake dose at 1 h / tissue uptake dose at 3 h: male, ddY, total radioactivity, Biodistribution of radioactivity; for Biodistribution of radioactivity, Blood / Biodistribution of radioactivity, Bone (Femur) / Biodistribution of radioactivity, Brain / Biodistribution of radioactivity, Heart / Biodistribution of radioactivity, Kidney / Biodistribution of radioactivity, Large-intestine / Biodistribution of radioactivity, Liver / Biodistribution of radioactivity, Lung / Biodistribution of radioactivity, Muscle / Biodistribution of radioactivity, Pancreas / Biodistribution of radioactivity, Small-intestine / Biodistribution of radioactivity, Spleen / F/B ratio (Femur:blood ratio) / Biodistribution of radioactivity, Stomach: mice, mean (SD); for Biodistribution of radioactivity, Stomach: footnote b
How it was run: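 Male ddY mice (6 weeks, 27–32 g) received tracer i.v. (37–740 kBq/100 μL); 4–5 per group sacrificed at 10, 60 and 180 min. Weighed tissues and whole left femur (bone) gamma-counted with background and decay correction.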

[4] = mouse, in vivo, iv, Bone (Femur)
[5] = mouse, in vivo, iv, Large-intestine
[6] = mouse, in vivo, iv, Small-intestine

SMILES: O=C(O)C[C@H](NC(=O)[C@H](CC(=O)O)NC(=O)[C@H](CC(=O)O)NC(=O)[C@H](CC(=O)O)NC(=O)[C@H](CC(=O)O)NC(=O)[C@H](CC(=O)O)NC(=O)[C@H](CC(=O)O)NC(=O)[C@H](CC(=O)O)NC(=O)[C@H](CC(=O)O)NC(=O)[C@H](CC(=O)O)NC(=O)[C@H](CC(=O)O)NC(=O)[C@H](CC(=O)O)NC(=O)[C@H](CC(=O)O)NC(=O)[C@H](CC(=O)O)NC(=O)CN1CCN(CC(=O)O)CCN(CC(=O)O)CCN(CC(=O)O)CC1)C(=O)O [^67Ga-DOTA-(L-Asp)14, metal not drawn] ({DOTA}-DDDDDDDDDDDDDD-OH)
Ratio of the intact complex in urine [1]: 55.0 ± 13.9% | Accumulation in bone (in words) [2]: high accumulation in bone | Blood clearance (in words) [2]: rapid blood clearance

tissue uptake dose at 10 min ([3]; mouse, in vivo, iv, Blood): 1.85 %ID | tissue uptake dose at 1 h ([3]; mouse, in vivo, iv, Blood): 0.12 %ID | tissue uptake dose at 3 h ([3]; mouse, in vivo, iv, Blood): 0.05 %ID | tissue uptake dose at 10 min [3, 4]: 9.81 %ID | tissue uptake dose at 1 h [3, 4]: 11.1 %ID | tissue uptake dose at 3 h [3, 4]: 10.9 %ID | tissue uptake dose at 10 min ([3]; mouse, in vivo, iv, Brain): 0.05 %ID | tissue uptake dose at 1 h ([3]; mouse, in vivo, iv, Brain): 0.01 %ID | tissue uptake dose at 3 h ([3]; mouse, in vivo, iv, Brain): 0.03 %ID | tissue uptake dose at 10 min ([3]; mouse, in vivo, iv, Heart): 0.67 %ID | tissue uptake dose at 1 h ([3]; mouse, in vivo, iv, Heart): 0.1 %ID | tissue uptake dose at 3 h ([3]; mouse, in vivo, iv, Heart): 0.06 %ID | tissue uptake dose at 10 min ([3]; mouse, in vivo, iv, Kidney): 22.1 %ID | tissue uptake dose at 1 h ([3]; mouse, in vivo, iv, Kidney): 26.4 %ID | tissue uptake dose at 3 h ([3]; mouse, in vivo, iv, Kidney): 25.1 %ID | tissue uptake dose at 10 min [3, 5]: 0.37 %ID | tissue uptake dose at 1 h [3, 5]: 0.07 %ID | tissue uptake dose at 3 h [3, 5]: 0.23 %ID | tissue uptake dose at 10 min ([3]; mouse, in vivo, iv, Liver): 0.47 %ID | tissue uptake dose at 1 h ([3]; mouse, in vivo, iv, Liver): 0.13 %ID | tissue uptake dose at 3 h ([3]; mouse, in vivo, iv, Liver): 0.14 %ID | tissue uptake dose at 10 min ([3]; mouse, in vivo, iv, Lung): 1.57 %ID | tissue uptake dose at 1 h ([3]; mouse, in vivo, iv, Lung): 0.13 %ID | tissue uptake dose at 3 h ([3]; mouse, in vivo, iv, Lung): 0.06 %ID | tissue uptake dose at 10 min ([3]; mouse, in vivo, iv, Muscle): 0.63 %ID | tissue uptake dose at 1 h ([3]; mouse, in vivo, iv, Muscle): 0.1 %ID | tissue uptake dose at 3 h ([3]; mouse, in vivo, iv, Muscle): 0.3 %ID | tissue uptake dose at 10 min ([3]; mouse, in vivo, iv, Pancreas): 0.59 %ID | tissue uptake dose at 1 h ([3]; mouse, in vivo, iv, Pancreas): 0.13 %ID | tissue uptake dose at 3 h ([3]; mouse, in vivo, iv, Pancreas): 0.08 %ID | tissue uptake dose at 10 min [3, 6]: 0.5 %ID | tissue uptake dose at 1 h [3, 6]: 0.13 %ID | tissue uptake dose at 3 h [3, 6]: 0.15 %ID | tissue uptake dose at 10 min ([3]; mouse, in vivo, iv, Spleen): 0.44 %ID | tissue uptake dose at 1 h ([3]; mouse, in vivo, iv, Spleen): 0.1 %ID | tissue uptake dose at 3 h ([3]; mouse, in vivo, iv, Spleen): 0.11 %ID | tissue uptake dose at 10 min ([3]; mouse, in vivo, iv, Stomach): 0.22 %ID | tissue uptake dose at 1 h ([3]; mouse, in vivo, iv, Stomach): 0.07 %ID | tissue uptake dose at 3 h ([3]; mouse, in vivo, iv, Stomach): 0.07 %ID | Clearance from the blood (in words) ([3]; mouse, in vivo, iv): rapid clearance from the blood | Radioactivity in the kidneys (in words) ([3]; mouse, in vivo, iv): retained
SMILES: O=C(O)CC[C@H](NC(=O)[C@H](CCC(=O)O)NC(=O)[C@H](CCC(=O)O)NC(=O)[C@H](CCC(=O)O)NC(=O)[C@H](CCC(=O)O)NC(=O)[C@H](CCC(=O)O)NC(=O)[C@H](CCC(=O)O)NC(=O)[C@H](CCC(=O)O)NC(=O)[C@H](CCC(=O)O)NC(=O)[C@H](CCC(=O)O)NC(=O)[C@H](CCC(=O)O)NC(=O)[C@H](CCC(=O)O)NC(=O)[C@H](CCC(=O)O)NC(=O)[C@H](CCC(=O)O)NC(=O)CN1CCN(CC(=O)O)CCN(CC(=O)O)CCN(CC(=O)O)CC1)C(=O)O [^67Ga-DOTA-(L-Glu)14, metal not drawn]
Accumulation of radioactivity in bone (in words) ([3]; mouse, in vivo, iv): high accumulation and retention of radioactivity in bone

SMILES: O.O.O=P([O-])([O-])CP(=O)([O-])[O-].[99Tc+4] [^99mTc-MDP, ^99mTc-methylenediphosphonate, reference compound]
Biodistribution of radioactivity, Blood ([3]; i.v., 10 min after injection): 2.43 (0.10) % injected dose | Biodistribution of radioactivity, Bone (Femur) ([3]; i.v., 10 min after injection): 20.76 (1.51) % injected dose | Biodistribution of radioactivity, Brain ([3]; i.v., 10 min after injection): 0.06 (0.01) % injected dose | Biodistribution of radioactivity, Heart ([3]; i.v., 10 min after injection): 0.94 (0.05) % injected dose | Biodistribution of radioactivity, Kidney ([3]; i.v., 10 min after injection): 10.44 (1.56) % injected dose | Biodistribution of radioactivity, Large-intestine ([3]; i.v., 10 min after injection): 0.61 (0.20) % injected dose | Biodistribution of radioactivity, Liver ([3]; i.v., 10 min after injection): 0.61 (0.02) % injected dose | Biodistribution of radioactivity, Lung ([3]; i.v., 10 min after injection): 1.80 (0.16) % injected dose | Biodistribution of radioactivity, Muscle ([3]; i.v., 10 min after injection): 0.57 (0.09) % injected dose | Biodistribution of radioactivity, Pancreas ([3]; i.v., 10 min after injection): 0.77 (0.10) % injected dose | Biodistribution of radioactivity, Small-intestine ([3]; i.v., 10 min after injection): 0.69 (0.15) % injected dose | Biodistribution of radioactivity, Spleen ([3]; i.v., 10 min after injection): 0.54 (0.07) % injected dose | F/B ratio (Femur:blood ratio) ([3]; i.v., 10 min after injection): 8.54 (0.57) | Biodistribution of radioactivity, Stomach ([3]; i.v., 10 min after injection): 0.63 (0.14) % injected dose | Biodistribution of radioactivity, Blood ([3]; i.v., 60 min after injection): 0.23 (0.04) % injected dose | Biodistribution of radioactivity, Bone (Femur) ([3]; i.v., 60 min after injection): 27.92 (3.25) % injected dose | Biodistribution of radioactivity, Brain ([3]; i.v., 60 min after injection): 0.02 (0.00) % injected dose | Biodistribution of radioactivity, Heart ([3]; i.v., 60 min after injection): 0.16 (0.02) % injected dose | Biodistribution of radioactivity, Kidney ([3]; i.v., 60 min after injection): 2.03 (0.50) % injected dose | Biodistribution of radioactivity, Large-intestine ([3]; i.v., 60 min after injection): 0.14 (0.04) % injected dose | Biodistribution of radioactivity, Liver ([3]; i.v., 60 min after injection): 0.27 (0.05) % injected dose | Biodistribution of radioactivity, Lung ([3]; i.v., 60 min after injection): 0.30 (0.03) % injected dose | Biodistribution of radioactivity, Muscle ([3]; i.v., 60 min after injection): 0.13 (0.04) % injected dose | Biodistribution of radioactivity, Pancreas ([3]; i.v., 60 min after injection): 0.13 (0.02) % injected dose | Biodistribution of radioactivity, Small-intestine ([3]; i.v., 60 min after injection): 1.55 (1.68) % injected dose | Biodistribution of radioactivity, Spleen ([3]; i.v., 60 min after injection): 0.14 (0.02) % injected dose | F/B ratio (Femur:blood ratio) ([3]; i.v., 60 min after injection): 120.87 (9.30) | Biodistribution of radioactivity, Stomach ([3]; i.v., 60 min after injection): 0.70 (0.37) % injected dose | Biodistribution of radioactivity, Blood ([3]; i.v., 180 min after injection): 0.05 (0.01) % injected dose | Biodistribution of radioactivity, Bone (Femur) ([3]; i.v., 180 min after injection): 29.03 (2.12) % injected dose | Biodistribution of radioactivity, Brain ([3]; i.v., 180 min after injection): 0.01 (0.00) % injected dose | Biodistribution of radioactivity, Heart ([3]; i.v., 180 min after injection): 0.07 (0.02) % injected dose | Biodistribution of radioactivity, Kidney ([3]; i.v., 180 min after injection): 1.22 (0.36) % injected dose | Biodistribution of radioactivity, Large-intestine ([3]; i.v., 180 min after injection): 0.23 (0.07) % injected dose | Biodistribution of radioactivity, Liver ([3]; i.v., 180 min after injection): 0.16 (0.04) % injected dose | Biodistribution of radioactivity, Lung ([3]; i.v., 180 min after injection): 0.10 (0.02) % injected dose | Biodistribution of radioactivity, Muscle ([3]; i.v., 180 min after injection): 0.06 (0.01) % injected dose | Biodistribution of radioactivity, Pancreas ([3]; i.v., 180 min after injection): 0.07 (0.01) % injected dose | Biodistribution of radioactivity, Small-intestine ([3]; i.v., 180 min after injection): 0.26 (0.08) % injected dose | Biodistribution of radioactivity, Spleen ([3]; i.v., 180 min after injection): 0.07 (0.01) % injected dose | F/B ratio (Femur:blood ratio) ([3]; i.v., 180 min after injection): 546.64 (91.83) | Biodistribution of radioactivity, Stomach ([3]; i.v., 180 min after injection): 0.29 (0.07) % injected dose | Accumulation of radioactivity in bone (in words) ([3]; normal mice, i.v.): high accumulation and retention of radioactivity in bone
